From PubChem BioAssay AID1963965 (Molecular Pharmacology Branch, DTP, NCI, 2024)

System: 996289-038-R-J1-PDC spheroid viability
Test: Anticancer human tumor 996289-038-R-J1-PDC patient-derived colon adenocarcinoma cell line growth inhibition [PI3K]
Conditions: spheroids with HUVEC and MSC; for IC50: curve of first compound; for viability, T/C: stronger effect = lower value; active = viability on the fitted dose curve at most 10% of control; inactive = the rest
Method in brief: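 Spheroid viability read-out. Co-cultures contained the tumor line plus HUVEC and human MSCs. Each agent was paired with a PI3K inhibitor (inavolisib, alpelisib, duvelisib, copanlisib) across half-log dilutions starting at clinical Cmax, or at 10 microM when Cmax was unknown.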
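Also: spheroids exposed to compounds for seven days before viability read.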
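For viability, T/C in this document: luminescence used as a proxy for viable cell amount; percent viability relative to DMSO vehicle control as 100%.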

CC1(C)CCC(Nc2ncc(C(F)(F)F)c(-c3c[nH]c4c(P(C)(C)=O)c(C#N)ccc34)n2)CN1 (centres undefined) + CC(Nc1ccc2c(c1)OCCn1cc(N3C(=O)OCC3C(F)F)nc1-2)C(N)=O
6690 nM: IC50 (second compound 0.0316 µM)
4660 nM: IC50 (second compound 1 µM)
inactive: viability, T/C (second compound 0.00316 µM, first compound 0.0316 µM) 111% | viability, T/C (second compound 0.00316 µM, first compound 0.1 µM) 90.6% | viability, T/C (second compound 0.00316 µM, first compound 0.316 µM) 81% | viability, T/C (second compound 0.00316 µM, first compound 1 µM) 87.3% | viability, T/C (second compound 0.00316 µM, first compound 3.16 µM) 97.1% | viability, T/C (second compound 0.00316 µM, first compound 10 µM) 27.4% | viability, T/C (second compound 0.01 µM, first compound 0.0316 µM) 110% | viability, T/C (second compound 0.01 µM, first compound 0.1 µM) 93% | viability, T/C (second compound 0.01 µM, first compound 0.316 µM) 81.7% | viability, T/C (second compound 0.01 µM, first compound 1 µM) 94.1% | viability, T/C (second compound 0.01 µM, first compound 3.16 µM) 89.7% | viability, T/C (second compound 0.01 µM, first compound 10 µM) 31.1% | viability, T/C (second compound 0.0316 µM, first compound 0.0316 µM) 99.3% | viability, T/C (second compound 0.0316 µM, first compound 0.1 µM) 83.6% | viability, T/C (second compound 0.0316 µM, first compound 0.316 µM) 85.5% | viability, T/C (second compound 0.0316 µM, first compound 1 µM) 81.9% | viability, T/C (second compound 0.0316 µM, first compound 3.16 µM) 88.5% | viability, T/C (second compound 0.0316 µM, first compound 10 µM) 29.7% | viability, T/C (second compound 0.1 µM, first compound 0.0316 µM) 89% | viability, T/C (second compound 0.1 µM, first compound 0.1 µM) 76.3% | viability, T/C (second compound 0.1 µM, first compound 0.316 µM) 81.2% | viability, T/C (second compound 0.1 µM, first compound 1 µM) 82.2% | viability, T/C (second compound 0.1 µM, first compound 3.16 µM) 81% | viability, T/C (second compound 0.1 µM, first compound 10 µM) 22.9% | viability, T/C (second compound 0.316 µM, first compound 0.0316 µM) 73.9% | viability, T/C (second compound 0.316 µM, first compound 0.1 µM) 72% | viability, T/C (second compound 0.316 µM, first compound 0.316 µM) 76.6% | viability, T/C (second compound 0.316 µM, first compound 1 µM) 65.8% | viability, T/C (second compound 0.316 µM, first compound 3.16 µM) 69% | viability, T/C (second compound 0.316 µM, first compound 10 µM) 19.9% | viability, T/C (second compound 1 µM, first compound 0.0316 µM) 58.8% | viability, T/C (second compound 1 µM, first compound 0.1 µM) 73.8% | viability, T/C (second compound 1 µM, first compound 0.316 µM) 63.7% | viability, T/C (second compound 1 µM, first compound 1 µM) 63.3% | viability, T/C (second compound 1 µM, first compound 3.16 µM) 66.8% | viability, T/C (second compound 1 µM, first compound 10 µM) 19.9%
4910 nM: IC50 (second compound 0.316 µM)
5850 nM: IC50 (second compound 0.1 µM)
6890 nM: IC50 (second compound 0.01 µM)
6750 nM: IC50 (second compound 0.00316 µM)

Cn1cnc2c(F)c(Nc3ccc(Br)cc3Cl)c(C(=O)NOCCO)cc21 + CC(Nc1ncnc2nc[nH]c12)c1cc2cccc(Cl)c2c(=O)n1-c1ccccc1
207 nM: IC50 (second compound 0.0316 µM)
218 nM: IC50 (second compound 1 µM)
225 nM: IC50 (second compound 0.316 µM)
inactive: viability, T/C (second compound 0.0316 µM, first compound 0.00949 µM) 102% | viability, T/C (second compound 0.0316 µM, first compound 0.03 µM) 77.2% | viability, T/C (second compound 0.0316 µM, first compound 0.0949 µM) 67.1% | viability, T/C (second compound 0.0316 µM, first compound 0.3 µM) 39.3% | viability, T/C (second compound 0.0316 µM, first compound 0.949 µM) 33.5% | viability, T/C (second compound 0.0316 µM, first compound 3 µM) 21.2% | viability, T/C (second compound 0.1 µM, first compound 0.00949 µM) 94.4% | viability, T/C (second compound 0.1 µM, first compound 0.03 µM) 77% | viability, T/C (second compound 0.1 µM, first compound 0.0949 µM) 54.9% | viability, T/C (second compound 0.1 µM, first compound 0.3 µM) 42.8% | viability, T/C (second compound 0.1 µM, first compound 0.949 µM) 33.5% | viability, T/C (second compound 0.1 µM, first compound 3 µM) 23.9% | viability, T/C (second compound 0.316 µM, first compound 0.00949 µM) 108% | viability, T/C (second compound 0.316 µM, first compound 0.03 µM) 79.7% | viability, T/C (second compound 0.316 µM, first compound 0.0949 µM) 62.8% | viability, T/C (second compound 0.316 µM, first compound 0.3 µM) 45.1% | viability, T/C (second compound 0.316 µM, first compound 0.949 µM) 36.4% | viability, T/C (second compound 0.316 µM, first compound 3 µM) 21.2% | viability, T/C (second compound 1 µM, first compound 0.00949 µM) 85.5% | viability, T/C (second compound 1 µM, first compound 0.03 µM) 69% | viability, T/C (second compound 1 µM, first compound 0.0949 µM) 63.6% | viability, T/C (second compound 1 µM, first compound 0.3 µM) 43.9% | viability, T/C (second compound 1 µM, first compound 0.949 µM) 33.6% | viability, T/C (second compound 1 µM, first compound 3 µM) 19.2% | viability, T/C (second compound 3.16 µM, first compound 0.00949 µM) 83.5% | viability, T/C (second compound 3.16 µM, first compound 0.03 µM) 73.7% | viability, T/C (second compound 3.16 µM, first compound 0.0949 µM) 58.9% | viability, T/C (second compound 3.16 µM, first compound 0.3 µM) 37.7% | viability, T/C (second compound 3.16 µM, first compound 0.949 µM) 31.1% | viability, T/C (second compound 3.16 µM, first compound 3 µM) 18.2% | viability, T/C (second compound 10 µM, first compound 0.00949 µM) 94.1% | viability, T/C (second compound 10 µM, first compound 0.03 µM) 68.3% | viability, T/C (second compound 10 µM, first compound 0.0949 µM) 53.9% | viability, T/C (second compound 10 µM, first compound 0.3 µM) 36.2% | viability, T/C (second compound 10 µM, first compound 0.949 µM) 27% | viability, T/C (second compound 10 µM, first compound 3 µM) 13.9%
114 nM: IC50 (second compound 10 µM)
161 nM: IC50 (second compound 3.16 µM)
166 nM: IC50 (second compound 0.1 µM)
